From patent publication US12458643B2, “Antidepressant/anxiolytic drug in which PAC1 receptor antagonist is used” (KAGOSHIMA UNIVERSITY, priority 2020, dated 2025)

Legend:
[1] = disclosed in Patent Literature 2 (WO 2019/065794); cited from earlier work
[2] = tested on: single-restraint stress mice; assay: Single-restraint stress-induced anxiety-like behavior, open field test; type: in vivo, mouse; conditions: 30 mg/kg i.p. 30 min before 30 min restraint; 10 min test
Experimental: Male C57BL/6J mice (8 to 12 weeks old) were acclimatized to a laboratory (illuminance: 40 lx) for 60 minutes. Then, a vehicle (10% DMSO solution; dissolved in saline; n=11), PA-8 (30 mg/kg; n=11) or PA-81004 (30 mg/kg; n=8) was intraperitoneally administered thereto (0.1 mL/10 g). After a lapse of 30 minutes after administration, restraint stress (stress caused by holding the mice in tubes of 2.8 cm in diameter with a hole for breathing) was applied thereto for 30 minutes. The mice were allowed to freely explore an open field cage for 10 minutes from immediately after the completion of restraint. Mice that freely behaved in a home cage for 30 minutes without being held and without accessing water and food were used as a control (n=10). The results are shown in FIG. 9 (A: total distance traveled, B: the number of center zone entries, C: time spent in the center zone). The data was indicated by mean±standard error. **P<0.01, *P<0.05 (One-way ANOVA followed by Tukey-Kramer test). […] Male C57BL/6J mice (8 to 12 weeks old) were acclimatized to a laboratory (illuminance: 40 lx) for 60 minutes. Then, a vehicle (10% DMSO solution; dissolved in saline; n=10), PA-9 (30 mg/kg; n=13) or PA-915 (30 mg/kg; n=12) was intraperitoneally administered thereto (0.1 mL/10 g). After a lapse of 30 minutes after administration, restraint stress (stress caused by holding the mice in tubes of 2.8 cm in diameter with a hole for breathing) was applied thereto for 30 minutes. The mice were allowed to freely explore an open field cage for 10 minutes from immediately after the completion of restraint. Mice that freely behaved in a home cage for 30 minutes without being held and without accessing water and food were used as a control (n=10). The results are shown in FIG. 11 (A: total distance traveled, B: the number of center zone entries, C: time spent in the center zone). The data was indicated by mean±standard error. **P<0.01, *P<0.05 (One-way ANOVA followed by Tukey-Kramer test).

normal mice = assay: Open field test in normal mice; type: in vivo, mouse; conditions: normal male C57BL/6J mice, 30 mg/kg i.p., 60 min after administration, 10 min test
Experimental: The effects of PA-8 and PA-81004 on normal mice were evaluated by an open field test (test to measure spontaneous locomotion in a novel environment by exploiting the properties of mice to do exploratory behavior in such a novel environment, and using a 40 cm×40 cm box of 30 cm in height; spontaneous motor activity is measured from the total distance traveled; in this test, anxiety-like behavior is evaluated by exploiting the properties of mice to prefer to stay near walls and avoid light environments, and measuring a time spent in a center zone (20 cm×20 cm) or the number of entries thereto). Male C57BL/6J mice (8 to 12 weeks old) were acclimatized to a laboratory (illuminance: 40 lx) for 60 minutes. Then, a vehicle (10% DMSO solution; dissolved in saline; n=11), PA-8 (30 mg/kg; n=9) or PA-81004 (30 mg/kg; n=12) was intraperitoneally administered thereto (0.1 mL/10 g). After a lapse of 60 minutes after administration, the test was conducted for 10 minutes. The results are shown in FIG. 1 (A: total distance traveled, B: the number of center zone entries, C: time spent in the center zone). The effects of PA-9 and PA-915 on normal mice were evaluated by the open field test. Male C57BL/6J mice (8 to 12 weeks old) were acclimatized to a laboratory (illuminance: 40 lx) for 60 minutes. Then, a vehicle (10% DMSO solution; dissolved in saline; n=10), PA-9 (30 mg/kg; n=11) or PA-915 (30 mg/kg; n=10) was intraperitoneally administered thereto (0.1 mL/10 g). After a lapse of 60 minutes after administration, the test was conducted for 10 minutes. The results are shown in FIG. 5 (A: total distance traveled, B: the number of center zone entries, C: time spent in the center zone).

[3] = tested on: chronically corticosterone-administered model mice; assay: Repeated corticosterone administration, forced swim test; type: in vivo, mouse; conditions: male mice, corticosterone 20 mg/kg s.c. 21 days; single i.p. PA-915 30 mg/kg, ketamine 20 mg/kg, fluoxetine 20 mg/kg; 24 hours later
Experimental: Chronically corticosterone-administered model mice are model mice that mimic high plasma corticosterone levels associated with the hyperactivation of the hypothalamic-pituitary-adrenal system under pathological stress, and are generally used as depression model mice.
A vehicle (0.5% carboxymethylcellulose solution) or corticosterone (20 mg/kg) was subcutaneously administered (0.1 mL/10 g) to male C57BL/6J mice (6 weeks old) for 21 days. A vehicle (10% DMSO solution; dissolved in saline; n=11), PA-915 (30 mg/kg; n=13), ketamine (20 mg/kg; n=13) or fluoxetine (20 mg/kg; n=15) was intraperitoneally administered thereto (0.1 mL/10 g) 3 hours after administration on the 21st day. The mice were forced to swim for 6 minutes 24 hours later, and an immobility time was measured. Mice given the vehicle by repeated administration without repeated corticosterone administration were used as a control (n=11). The data was indicated by mean±standard error. **P<0.01 (One-way ANOVA followed by Tukey-Kramer test).
A vehicle (0.5% carboxymethylcellulose solution) or corticosterone (20 mg/kg) was subcutaneously administered (0.1 mL/10 g) to female C57BL/6J mice (9 weeks old) for 21 days. […] The mice were forced to swim for 6 minutes 24 hours later, and an immobility time was measured. […]

SMILES | analgesic action [1] | effect on single-restraint stress-induced anxiety-like behavior (open field test) [2] | pharmacological action in open field test (total distance traveled, center zone entries, time in center zone) (normal mice) | effect on depressive-like behavior (forced swim test, immobility time) [3]
C=CCOc1ccc(C2CC(=O)Nc3nc(N)[nH]c(=O)c32)cc1OC (stereo not shown) [PA-8] | analgesic action | improving effects | no pharmacological action | –
O=C(NCCc1c[nH]cn1)C1CC(=O)N(c2n[nH]c3ccccc23)C1 (stereo not shown) [PA-9] | analgesic action | improving effects | no pharmacological action | –
Nc1nc2c(c(=O)[nH]1)C(c1cccc(OC(F)(F)F)c1)CC(=O)N2 (stereo not shown) [PA-81004, 2-Amino-5-(3-trifluoromethoxyphenyl)-5,8-dihydro-3H,6H-pyrido[2,3-d]pyrimidine-4,7-dione] | – | improving effects | no pharmacological action | –
CNCCC(Oc1ccc(C(F)(F)F)cc1)c1ccccc1 (stereo not shown) [fluoxetine] | – | – | – | exhibited no improving effect
CNC1(c2ccccc2Cl)CCCCC1=O (stereo not shown) [ketamine] | – | – | – | improved depressive-like behavior
